In PubChem BioAssay (NCI):
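Growth conditions: 96-well plates. Treatment: test compound, 48 hours, 5 concentrations. Analysis: linear interpolation between bracketing concentrations; unreached endpoints set to highest concentration. TGI: concentration producing complete growth inhibition.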

Assays:
Test in all cases: growth of human tumour cells (NCI), 48 h
HCC-2998 colon = tested on: HCC-2998 colon
SK-MEL-28 melanoma = tested on: SK-MEL-28 melanoma
786-0 renal = tested on: 786-0 renal
CAKI-1 renal = tested on: CAKI-1 renal
SF-295 CNS = tested on: SF-295 CNS
KM12 colon = tested on: KM12 colon
HOP-92 NSCLC = tested on: HOP-92 NSCLC
SNB-75 CNS = tested on: SNB-75 CNS
RXF 393 renal = tested on: RXF 393 renal
M19-MEL melanoma = tested on: M19-MEL melanoma
SF-268 CNS = tested on: SF-268 CNS
ACHN renal = tested on: ACHN renal
M14 melanoma = tested on: M14 melanoma
NCI-H226 lung = tested on: NCI-H226 lung
UACC-257 melanoma = tested on: UACC-257 melanoma
SK-OV-3 ovarian = tested on: SK-OV-3 ovarian
TK-10 renal = tested on: TK-10 renal
MALME-3M melanoma = tested on: MALME-3M melanoma
OVCAR-3 ovarian = tested on: OVCAR-3 ovarian
RXF-631 renal = tested on: RXF-631 renal
HCT-116 colon = tested on: HCT-116 colon
UACC-62 melanoma = tested on: UACC-62 melanoma
MOLT-4 leukemia = tested on: MOLT-4 leukemia
NCI-H460 lung = tested on: NCI-H460 lung
SR leukemia = tested on: SR leukemia
DLD-1 colon = tested on: DLD-1 colon
K-562 leukemia = tested on: K-562 leukemia
OVCAR-4 ovarian = tested on: OVCAR-4 ovarian
SN12C renal = tested on: SN12C renal
IGROV1 ovarian = tested on: IGROV1 ovarian
HOP-62 NSCLC = tested on: HOP-62 NSCLC
SNB-19 CNS = tested on: SNB-19 CNS
NCI-H23 lung = tested on: NCI-H23 lung
LXFL 529 NSCLC = tested on: LXFL 529 NSCLC
OVCAR-8 ovarian = tested on: OVCAR-8 ovarian
SW-620 colon = tested on: SW-620 colon
NCI-H522 lung = tested on: NCI-H522 lung
RPMI-8226 leukemia = tested on: RPMI-8226 leukemia
XF 498 CNS = tested on: XF 498 CNS
HT29 colon = tested on: HT29 colon
DMS 114 small cell lung = tested on: DMS 114 small cell lung
OVCAR-5 ovarian = tested on: OVCAR-5 ovarian
HCT-15 colon = tested on: HCT-15 colon
HL-60(TB) leukemia = tested on: HL-60(TB) leukemia
SF-539 CNS = tested on: SF-539 CNS
A549 NSCLC = tested on: A549 NSCLC
KM20L2 colon = tested on: KM20L2 colon
CCRF-CEM leukemia = tested on: CCRF-CEM leukemia
SNB-78 CNS = tested on: SNB-78 CNS
UO-31 renal = tested on: UO-31 renal
U251 CNS = tested on: U251 CNS
COLO 205 colon = tested on: COLO 205 colon
SK-MEL-5 melanoma = tested on: SK-MEL-5 melanoma
LOX IMVI melanoma = tested on: LOX IMVI melanoma

CC(=O)c1c(O)ccc2c1CC(CC=O)O2 (centres undefined)
TGI (HCC-2998 colon): > 100 µM
TGI (SK-MEL-28 melanoma): > 100 µM
TGI (786-0 renal): > 100 µM
TGI (CAKI-1 renal): > 100 µM
TGI (SF-295 CNS): > 100 µM
TGI (KM12 colon): > 100 µM
TGI (HOP-92 NSCLC): > 100 µM
TGI (SNB-75 CNS): > 100 µM
TGI (RXF 393 renal): > 100 µM
TGI (M19-MEL melanoma): > 100 µM
TGI (SF-268 CNS): > 100 µM
TGI (ACHN renal): > 100 µM
TGI (M14 melanoma): > 100 µM
TGI (NCI-H226 lung): > 100 µM
TGI (UACC-257 melanoma): > 100 µM
TGI (SK-OV-3 ovarian): > 100 µM
TGI (TK-10 renal): > 100 µM
TGI (MALME-3M melanoma): > 100 µM
TGI (OVCAR-3 ovarian): > 100 µM
TGI (RXF-631 renal): > 100 µM
TGI (HCT-116 colon): 41.4 µM
TGI (UACC-62 melanoma): > 100 µM
TGI (MOLT-4 leukemia): > 100 µM
TGI (NCI-H460 lung): > 100 µM
TGI (SR leukemia): > 100 µM
TGI (DLD-1 colon): > 100 µM
TGI (K-562 leukemia): > 100 µM
TGI (OVCAR-4 ovarian): > 100 µM
TGI (SN12C renal): > 100 µM
TGI (IGROV1 ovarian): > 100 µM
TGI (HOP-62 NSCLC): > 100 µM
TGI (SNB-19 CNS): > 100 µM
TGI (NCI-H23 lung): > 100 µM
TGI (LXFL 529 NSCLC): > 100 µM
TGI (OVCAR-8 ovarian): > 100 µM
TGI (SW-620 colon): > 100 µM
TGI (NCI-H522 lung): > 100 µM
TGI (RPMI-8226 leukemia): > 100 µM
TGI (XF 498 CNS): > 100 µM
TGI (HT29 colon): > 100 µM
TGI (DMS 114 small cell lung): 55.1 µM
TGI (OVCAR-5 ovarian): > 100 µM
TGI (HCT-15 colon): > 100 µM
TGI (HL-60(TB) leukemia): > 100 µM
TGI (SF-539 CNS): > 100 µM
TGI (A549 NSCLC): > 100 µM
TGI (KM20L2 colon): > 100 µM
TGI (CCRF-CEM leukemia): > 100 µM
TGI (SNB-78 CNS): > 100 µM
TGI (UO-31 renal): > 100 µM
TGI (U251 CNS): > 100 µM
TGI (COLO 205 colon): > 100 µM
TGI (SK-MEL-5 melanoma): > 100 µM
TGI (LOX IMVI melanoma): 60.9 µM
